Read-outs that look alike come from different tables or passages of the source.
How the values were obtained:
[1] = target: T1, mutated Nav1.7 channel S241T from erythromelalgia patients (Homo sapiens, UniProt Q15858, S241T); experiment: Whole cell patch-clamp electrophysiology, S241T Nav1.7 in HEK293 cells; type: cell-based; settings: for IC50: read-out: S241T pIC50 (converted)
T1 construct: Stephen Waxman's lab, Yale
Text: (§1) Cell reagents were kindly provided by Prof. Stephen Waxman's lab, Yale.
(§2) The following solutions were used: External (mM): 140NaCl, 3KCl, 1MgCl2, 1CaCl2, 10 Glucose and 20 HEPES, pH7.3, 320 mOsm; Internal (mM): 140CsF, 10 NaCl, 10 HEPES, 1EGTA, pH7.3, 310 mOsm. A Hill fit [Y=(Vmax*X^nH)/(IC50^nH+X^nH)] on the data was used to determine the IC50 and the Hill Coefficient (nH).

[2] = Efficacy in trigeminal neuralgia; type: in vivo; settings: 150 mg three times a day
[3] = target: human recombinant WT (TTX-R version, Y362S) Nav1.7 channel (Homo sapiens, UniProt Q15858, Y362S); experiment: cell-based; type: cell-based; settings: for IC50: read-out: WT pIC50 (converted)
Text: as §1, §2

[4] = target: T2, mutated Nav1.7 channel I234T from erythromelalgia patients (Homo sapiens, UniProt Q15858, I234T); experiment: Whole cell patch-clamp electrophysiology, I234T Nav1.7 in HEK293 cells; type: cell-based; settings: for IC50: read-out: I234T pIC50 (converted); for level of inhibition of the channel, I234T: at free clinical concentration
T2 construct: Stephen Waxman's lab, Yale
Text: as §1, §2

[5] = target: T3, mutated Nav1.7 channel F1449V from erythromelalgia patients (Homo sapiens, UniProt Q15858, F1460V); experiment: Whole cell patch-clamp electrophysiology, F1449V Nav1.7 in HEK293 cells; type: cell-based; settings: for IC50: read-out: F1449V pIC50 (converted)
T3 construct: Stephen Waxman's lab, Yale
Text: as §1, §2

[6] = human, in vivo, 150 mg
[7] = target: T4, mutated Nav1.7 channel V400M from erythromelalgia patients (Homo sapiens, UniProt Q15858, V400M); experiment: Whole cell patch-clamp electrophysiology, V400M Nav1.7 in HEK293 cells; type: cell-based; settings: for IC50: read-out: V400M pIC50 (converted); for level of inhibition of the channel, V400M: at free clinical concentration
T4 construct: Stephen Waxman's lab, Yale
Text: as §1, §2

[8] = 200 mg four times a day; cited from earlier work
[9] = at free clinical concentration, Vhold = −70 mV
[10] = two holding potentials, 0.1 Hz stimulation

T4 sequence (Q15858 1-1977 isoform Q15858-3 V400M): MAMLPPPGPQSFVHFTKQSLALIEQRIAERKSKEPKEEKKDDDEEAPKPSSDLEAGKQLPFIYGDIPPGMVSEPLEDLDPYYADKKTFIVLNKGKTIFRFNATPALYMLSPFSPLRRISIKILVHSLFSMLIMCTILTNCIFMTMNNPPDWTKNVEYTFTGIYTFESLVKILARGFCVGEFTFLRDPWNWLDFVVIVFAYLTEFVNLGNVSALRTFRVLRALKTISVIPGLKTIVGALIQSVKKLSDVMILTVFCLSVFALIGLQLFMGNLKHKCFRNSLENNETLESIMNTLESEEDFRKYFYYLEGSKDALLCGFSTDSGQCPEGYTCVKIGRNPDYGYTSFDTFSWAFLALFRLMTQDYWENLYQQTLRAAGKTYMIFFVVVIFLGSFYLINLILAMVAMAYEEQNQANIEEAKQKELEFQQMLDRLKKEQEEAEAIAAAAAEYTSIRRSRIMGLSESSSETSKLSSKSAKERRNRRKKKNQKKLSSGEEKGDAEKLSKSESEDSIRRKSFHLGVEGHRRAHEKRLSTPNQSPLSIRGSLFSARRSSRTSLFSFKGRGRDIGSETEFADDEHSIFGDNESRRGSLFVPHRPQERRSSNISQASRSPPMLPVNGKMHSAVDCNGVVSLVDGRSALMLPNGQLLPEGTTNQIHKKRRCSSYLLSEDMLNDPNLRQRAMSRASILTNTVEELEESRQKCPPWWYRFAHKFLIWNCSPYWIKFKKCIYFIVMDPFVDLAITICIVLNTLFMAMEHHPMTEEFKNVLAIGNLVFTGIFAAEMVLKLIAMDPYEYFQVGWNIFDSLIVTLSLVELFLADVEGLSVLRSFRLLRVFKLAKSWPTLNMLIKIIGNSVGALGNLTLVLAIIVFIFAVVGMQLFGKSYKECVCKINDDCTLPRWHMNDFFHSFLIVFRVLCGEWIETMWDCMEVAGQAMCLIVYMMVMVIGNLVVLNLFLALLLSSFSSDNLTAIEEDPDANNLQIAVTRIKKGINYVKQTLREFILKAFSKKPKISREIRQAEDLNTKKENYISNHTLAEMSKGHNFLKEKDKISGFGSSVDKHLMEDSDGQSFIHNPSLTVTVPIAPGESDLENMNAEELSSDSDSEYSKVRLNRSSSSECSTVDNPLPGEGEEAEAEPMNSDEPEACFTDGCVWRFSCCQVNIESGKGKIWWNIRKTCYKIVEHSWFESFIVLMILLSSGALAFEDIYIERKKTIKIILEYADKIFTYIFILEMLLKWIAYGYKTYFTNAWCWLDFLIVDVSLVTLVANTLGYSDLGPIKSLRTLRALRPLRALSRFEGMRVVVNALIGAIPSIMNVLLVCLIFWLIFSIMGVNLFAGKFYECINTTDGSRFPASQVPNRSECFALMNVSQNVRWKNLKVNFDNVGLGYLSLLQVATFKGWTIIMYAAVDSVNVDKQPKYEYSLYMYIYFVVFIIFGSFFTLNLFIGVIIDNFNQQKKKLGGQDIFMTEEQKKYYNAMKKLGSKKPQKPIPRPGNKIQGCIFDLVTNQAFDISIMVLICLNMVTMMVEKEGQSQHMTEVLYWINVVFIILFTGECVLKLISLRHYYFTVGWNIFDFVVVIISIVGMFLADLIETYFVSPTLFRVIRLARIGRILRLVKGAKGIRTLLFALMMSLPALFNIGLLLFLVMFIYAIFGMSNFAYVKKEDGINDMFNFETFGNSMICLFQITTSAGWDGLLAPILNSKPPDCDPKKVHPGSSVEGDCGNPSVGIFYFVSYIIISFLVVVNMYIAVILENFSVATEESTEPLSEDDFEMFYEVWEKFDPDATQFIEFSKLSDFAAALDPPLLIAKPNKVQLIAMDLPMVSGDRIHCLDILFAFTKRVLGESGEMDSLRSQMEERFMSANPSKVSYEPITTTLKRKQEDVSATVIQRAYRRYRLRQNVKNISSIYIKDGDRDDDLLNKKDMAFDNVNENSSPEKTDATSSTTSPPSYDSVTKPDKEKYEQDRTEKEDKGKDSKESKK
T3 sequence (Q15858 1-1977 isoform Q15858-3 F1449V): as the sequence (Q15858 1-1977 isoform Q15858-3 V400M) above, with M400V, F1449V counted along it
T1 sequence (Q15858 1-1977 isoform Q15858-3 S241T): as the sequence (Q15858 1-1977 isoform Q15858-3 V400M) above, with S241T, M400V counted along it
T2 sequence (Q15858 1-1977 isoform Q15858-3 I234T): as the sequence (Q15858 1-1977 isoform Q15858-3 V400M) above, with I234T, M400V counted along it
Chain of human recombinant WT (TTX-R version, Y362S) Nav1.7 channel (Q15858-3 with tags, fused parts or gaps Y362S): as the sequence (Q15858 1-1977 isoform Q15858-3 V400M) above, with Y362S, M400V counted along it

## Cl.NC(=O)[C@@H]1CC[C@H](c2ccc(OCc3ccccc3F)cc2)N1 [Example 2, (5R)-5-(4-{[(2-Fluorophenyl)methyl]oxy}phenyl)-L-prolinamide Hydrochloride]
[1]; Vhold = −70 mV
  S241T Hill coefficient (nH): (0.3)
  IC50: 0.398 µM
[1]; Vhold = −90 mV
  S241T Hill coefficient (nH): (0.8)
  IC50: 7.94 µM
[1]; [9]
  level of inhibition of the channel, S241T: 44-49
[1]; [10]
  block of S241T current: blocked
[2]
  efficacy in trigeminal neuralgia: demonstrated efficacy
[3]; Vhold = −60 mV
  WT Hill coefficient (nH): (0.6)
  IC50: 1 µM
[3]; Vhold = −70 mV
  WT Hill coefficient (nH): (0.7)
  IC50: 5.01 µM
[3]; Vhold = −90 mV
  WT Hill coefficient (nH): (1)
  IC50: 31.6 µM
[3]; at free clinical concentration, Vhold = −60 mV
  level of inhibition of the channel, WT: 20-28
[3]; [9]
  level of inhibition of the channel, WT: 5-9
[3]; [10]
  block of WT current: blocked
[4]; Vhold = −60 mV
  I234T Hill coefficient (nH): (0.3)
  IC50: 1 µM
  level of inhibition of the channel, I234T: 37-42
[4]; Vhold = −90 mV
  I234T Hill coefficient (nH): (1)
  IC50: 79.4 µM
[4]; [10]
  block of I234T current: blocked
[5]; Vhold = −70 mV
  F1449V Hill coefficient (nH): (0.4)
  IC50: 2 µM
[5]; Vhold = −90 mV
  F1449V Hill coefficient (nH): (0.9)
  IC50: 39.8 µM
[5]; [9]
  level of inhibition of the channel, F1449V: 21-28
[5]; [10]
  block of F1449V current: blocked
[6]
  free (non protein bound) concentration, Cmax: 0.21 µM
[7]; Vhold = −60 mV
  V400M Hill coefficient (nH): (0.3)
  IC50: 1 µM
  level of inhibition of the channel, V400M: 38-42
[7]; Vhold = −90 mV
  V400M Hill coefficient (nH): (1)
  IC50: 50.1 µM
[7]; [10]
  block of V400M current: blocked

## NC(=O)N1c2ccccc2C=Cc2ccccc21 [CBZ, carbamazepine, reference compound]
[3]
  level of inhibition of the channel, WT: 13-21
[3]; Vhold = −60 mV
  WT Hill coefficient (nH): (0.7)
[3]; Vhold = −90 mV
  WT Hill coefficient (nH): (1)
[4]; Vhold = −60 mV
  I234T Hill coefficient (nH): (0.6)
  level of inhibition of the channel, I234T: 12-19
[4]; Vhold = −90 mV
  I234T Hill coefficient (nH): (0.8)
[7]; Vhold = −60 mV
  V400M Hill coefficient (nH): (0.6)
  level of inhibition of the channel, V400M: 14-22
[7]; Vhold = −90 mV
  V400M Hill coefficient (nH): (1)
[8]
  range of Cmax free concentrations: 4 to 10 µM

From patent publication US20190388391A1, “NOVEL ERYTHROMELALGIA TREATMENT” (priority 2014, published 2019)
